Measured values published in PMC3038857, “Using Nuclear Receptor Activity to Stratify Hepatocarcinogens” (PLoS ONE, 2011).
Like-named read-outs stand apart in the source and are kept apart here.

Tests used:
[1] = system: CYP2B6; experiment: CLZD_CYP2B6: Change in expression of CYP2B6 (primary human hepatocytes); format: cell-based; conditions: 24 hr
Method in brief: (§1)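 Primary human hepatocyte cultures were exposed to test chemicals at 5 concentrations (0.004-40 µM) for 6, 24 or 48 hr.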

[2] = system: Mouse Liver; conditions: ref ToxRefDB, cited from earlier work
[3] = system: Mouse Liver; conditions: ref ToxRefDB, cited from earlier work; remark: listed apart in the source
[4] = target: T1, PXR (NR1I2) (Homo sapiens, UniProt O75469); experiment: ATG_PXR_TRANS: Factorial reporter gene assay (HepG2); format: cell-based; design: endogenous in cells; host or cells: HepG2; conditions: HepG2
T1 sequence (O75469 1-434): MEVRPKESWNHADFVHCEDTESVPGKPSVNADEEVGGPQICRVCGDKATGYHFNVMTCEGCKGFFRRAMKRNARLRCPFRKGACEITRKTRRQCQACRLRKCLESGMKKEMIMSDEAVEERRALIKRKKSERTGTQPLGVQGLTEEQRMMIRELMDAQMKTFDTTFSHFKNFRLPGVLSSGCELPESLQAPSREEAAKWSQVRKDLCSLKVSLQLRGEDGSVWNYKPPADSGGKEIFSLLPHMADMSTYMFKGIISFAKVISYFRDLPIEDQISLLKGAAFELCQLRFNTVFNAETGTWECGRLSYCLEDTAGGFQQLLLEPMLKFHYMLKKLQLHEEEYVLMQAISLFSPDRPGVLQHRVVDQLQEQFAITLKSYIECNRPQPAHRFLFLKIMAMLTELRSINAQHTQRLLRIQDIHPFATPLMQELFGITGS
Method in brief: (§2)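 Seven concentrations per chemical, three-fold dilutions down from the MTC, were tested in HepG2 hepatoma cells. Those cells carried a multiple reporter transcription unit library, read either as cis transcription-factor-site reporters or as a trans mammalian one-hybrid panel for nuclear receptors.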

[5] = target: T2, ESR1 (estrogen receptor 1) (Homo sapiens, UniProt P03372); experiment: ATG_ERa_TRANS: Factorial reporter gene assay (HepG2); format: cell-based; conditions: HepG2
T2 construct: expressed in transfected cells; host or cells: HepG2
T2 sequence (P03372 whole entry): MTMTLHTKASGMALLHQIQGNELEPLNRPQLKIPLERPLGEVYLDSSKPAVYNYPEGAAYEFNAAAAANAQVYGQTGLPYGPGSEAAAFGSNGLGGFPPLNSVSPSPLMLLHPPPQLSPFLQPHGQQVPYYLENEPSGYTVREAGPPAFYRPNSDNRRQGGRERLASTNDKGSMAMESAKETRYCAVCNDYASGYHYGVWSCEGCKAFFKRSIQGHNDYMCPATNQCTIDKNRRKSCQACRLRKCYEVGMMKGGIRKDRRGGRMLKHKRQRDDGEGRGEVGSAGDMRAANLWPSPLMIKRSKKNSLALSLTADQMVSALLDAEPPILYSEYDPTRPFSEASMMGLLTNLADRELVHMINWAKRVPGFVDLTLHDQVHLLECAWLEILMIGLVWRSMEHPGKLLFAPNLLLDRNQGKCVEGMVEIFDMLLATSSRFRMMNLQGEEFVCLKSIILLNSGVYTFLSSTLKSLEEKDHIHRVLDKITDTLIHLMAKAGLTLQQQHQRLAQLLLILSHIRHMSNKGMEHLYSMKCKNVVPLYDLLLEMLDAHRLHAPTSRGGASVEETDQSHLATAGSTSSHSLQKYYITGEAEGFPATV
Protocol: (§3) A multiple reporter transcription unit (MRTU) library consisting of 48 transcription factor binding sites was transfected into the HepG2 human liver hepatoma cell line. In addition to the cis-acting reporter genes (CIS), a modification of the approach was used to generate a trans-system (TRANS) with a mammalian one-hybrid assay consisting of an additional 25 MRTU library reporting the activity of nuclear receptor super-family members. […] These assays were performed by Attagene Inc. (Morrisville NC) under contract to EPA.
(§4) In addition to the cis-acting reporter genes (CIS), a modification of the approach was used to generate a trans-system (TRANS) with a mammalian one-hybrid assay consisting of an additional 25 MRTU library reporting the activity of nuclear receptor super-family members. […] Chemicals were then tested in the CIS and TRANS assays at seven concentrations starting at the MTC and followed by three-fold serial dilutions. These assays were performed by Attagene Inc. (Morrisville NC) under contract to EPA. Detailed description of the methods, data and analysis methods for this dataset will be presented in a separate publication.

[6] = target: T1, PXR (NR1I2); experiment: ATG_PXRE_CIS: Factorial reporter gene assay (HepG2); format: cell-based; design: endogenous in cells; host or cells: HepG2; conditions: HepG2
Method in brief: as §2

[7] = system: CYP3A4; experiment: CLZD_CYP3A4: Change in expression of CYP3A4 (primary human hepatocytes); format: cell-based; conditions: 24 hr
Method in brief: as §1

[8] = system: CYP1A2; experiment: CLZD_CYP1A2: Change in expression of CYP1A2 (primary human hepatocytes); format: cell-based; conditions: 24 hr
Method in brief: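 Read-out: mRNA change by multiplexed quantitative nuclease protection assay. Primary human hepatocytes; 5 concentrations, 0.004-40 µM; exposures 6, 24, 48 hr.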

[9] = target: T3, PXR Human (NR1I2) (Homo sapiens, UniProt O75469); experiment: NCGC_PXR_Agonist_human: GAL4 BLAM Reporter gene assay: PXR Human; format: cell-based; conditions: agonist mode
T3 sequence (O75469 146-434 limits assumed): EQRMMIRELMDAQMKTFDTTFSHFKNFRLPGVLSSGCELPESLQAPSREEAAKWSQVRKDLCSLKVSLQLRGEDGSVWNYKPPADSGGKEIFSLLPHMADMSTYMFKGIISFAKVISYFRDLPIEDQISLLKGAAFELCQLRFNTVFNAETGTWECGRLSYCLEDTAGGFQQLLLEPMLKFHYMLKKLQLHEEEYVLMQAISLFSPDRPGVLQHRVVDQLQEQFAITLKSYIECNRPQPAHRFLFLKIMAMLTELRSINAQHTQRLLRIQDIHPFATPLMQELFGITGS
Protocol: These assays measure binding constants and enzyme inhibition values for nuclear receptors. The targets include [drawing 67] , [drawing 68] , [drawing 69] , [drawing 70] , [drawing 71] , [drawing 72] , [drawing 73] , [drawing 74] , [drawing 75] and [drawing 76] . Each of the nuclear receptor targets was measured in agonist mode. Assays were run at the NIH Chemical Genomics Center (Rockville, MD).
Cell-based HTS Assays: These assays measuring binding constants and enzyme inhibition values for nuclear receptors. The targets include AR, ER, FXR, LXR, PPARα, PPARδ, PPARγ, RXRα, RXRβ and PXR. Each of the nuclear receptor targets was measured in both agonist and antagonist mode, but the antagonist data is still undergoing analysis due to possible interference between cytotoxicity and assay activity, so antagonist mode data were not used in the present analysis. Assays were run at the NIH Chemical Genomics Center (Rockville, MD) as part of the Tox21 collaboration. […] The R^2 was required to be ≥0.5. Values where only the highest concentration exceeded 50% activity were excluded to eliminate weak or false positives. Detailed description of the methods, data and analysis methods for this dataset will be presented in a separate publication.

[10] = system: CYP1A1; experiment: CLZD_CYP1A1: Change in expression of CYP1A1 (primary human hepatocytes); format: cell-based; conditions: 24 hr
Method in brief: as §1

[11] = system: Rat Liver; conditions: ref ToxRefDB, cited from earlier work
[12] = system: ABCB1; experiment: CLZD_ABCB1: Change in expression of ABCB1 (primary human hepatocytes); format: cell-based; conditions: 24 hr
Protocol: This is a collection of multiplexed gene expression assays focused on Phase I and II xenobiotic metabolizing enzymes and transporters. Human primary cell cultures were treated with chemicals at 5 concentrations (0.004-40 [drawing 42] M) for 6, 24 and 48 hr. Concentration- and time-response profiles of chemicals were measured by the expression of key nuclear receptor target genes, activities of CYP1A enzymes (EROD), and cell morphology. Fourteen gene targets were monitored by quantitative nuclease protection assay including: six representative cytochrome P-450 genes, four hepatic transporters, three Phase II conjugating enzymes, and one endogenous metabolism gene involved in cholesterol synthesis. The target genes associated with nuclear receptor pathways are as follows: [drawing 43] and [drawing 44] with [drawing 45]; [drawing 46] , [drawing 47] , [drawing 48] , [drawing 49] , [drawing 50] and [drawing 51] with [drawing 52]; [drawing 53] , [drawing 54] , [drawing 55] and [drawing 56] with [drawing 57]; [drawing 58] with [drawing 59]; and [drawing 60] with [drawing 61] . Assays were run in primary human hepatocyte cultures by CellzDirect Invitrogen Inc. (Durham, NC), in collaboration with EPA.
Multiplexed Gene Expression in Human Primary Hepatocytes: This is a collection of multiplexed gene expression assays focused on Phase I and II metabolic enzymes and transporters. […] Fourteen gene targets were monitored by quantitative nuclease protection assay: six representative cytochrome P450 genes, four hepatic transporters, three Phase II conjugating enzymes, and one endogenous metabolism gene involved in cholesterol synthesis. Cells were exposed at 5 concentrations (0.004-40 µM) for 6, 24 or 48 hr. Gene targets are sentinels for five nuclear receptor signaling pathways: AhR, CAR, PXR, FXR, and PPARα. All gene are associated with nuclear receptor pathways: CYP1A1 and CYP1A2 with AHR; ABCB1, ABCG2, CYP2B6, CYP2C9, CYP2C19 and UGT1A1 with CAR; CYP3A4, GSTA2, SLCO1B1 and SULT2A1 with PXR; HMGCS2 with PPARA; and ABCB11 with FXR. […] Detailed description of the methods, data and analysis methods for this dataset will be presented in a separate publication.

[13] = system: Rat Liver; conditions: ref ToxRefDB, cited from earlier work; remark: listed apart in the source
[14] = system: Rat Liver; conditions: ref ToxRefDB, cited from earlier work; remark: listed apart in the source
[15] = system: Mouse Liver; conditions: ref ToxRefDB, cited from earlier work; remark: listed apart in the source
[16] = target: T4, AHR (aryl hydrocarbon receptor) (Homo sapiens, UniProt P35869); experiment: ATG_Ahr_CIS: Factorial reporter gene assay (multiplexed transcription reporter, HepG2); format: cell-based; conditions: HepG2
T4 construct: endogenous in cells; host or cells: HepG2
T4 sequence (P35869 11-848): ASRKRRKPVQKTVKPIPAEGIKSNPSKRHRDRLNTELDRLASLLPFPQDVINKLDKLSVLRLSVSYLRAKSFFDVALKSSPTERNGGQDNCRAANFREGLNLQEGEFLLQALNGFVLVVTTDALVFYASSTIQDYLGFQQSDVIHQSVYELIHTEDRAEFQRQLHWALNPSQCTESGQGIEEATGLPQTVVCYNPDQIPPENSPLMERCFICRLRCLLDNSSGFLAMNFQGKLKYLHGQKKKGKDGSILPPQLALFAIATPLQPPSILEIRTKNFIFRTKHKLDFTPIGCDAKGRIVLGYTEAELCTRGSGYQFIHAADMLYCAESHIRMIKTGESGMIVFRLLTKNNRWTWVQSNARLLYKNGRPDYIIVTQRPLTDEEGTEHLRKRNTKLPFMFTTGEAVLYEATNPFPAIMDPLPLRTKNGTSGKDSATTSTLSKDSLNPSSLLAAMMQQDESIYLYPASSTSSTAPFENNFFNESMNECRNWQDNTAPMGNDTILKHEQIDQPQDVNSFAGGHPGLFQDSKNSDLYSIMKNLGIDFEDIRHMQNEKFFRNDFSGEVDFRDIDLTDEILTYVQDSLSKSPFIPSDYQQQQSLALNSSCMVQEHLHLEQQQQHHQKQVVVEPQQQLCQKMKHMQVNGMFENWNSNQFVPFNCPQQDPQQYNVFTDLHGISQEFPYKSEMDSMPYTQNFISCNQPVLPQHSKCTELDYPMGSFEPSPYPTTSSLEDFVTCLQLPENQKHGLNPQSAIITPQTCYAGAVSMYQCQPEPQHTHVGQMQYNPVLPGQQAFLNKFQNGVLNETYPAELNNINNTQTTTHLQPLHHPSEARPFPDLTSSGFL
Protocol: as §3, §4

[17] = target: T1, PXR (NR1I2); experiment: NVS_NR_hPXR: Human PXR Fluormone PXR (SXR) green (cell-free HTS); format: binding
Method in brief: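 Cell-free biochemical binding assays; chemicals first screened at a single concentration of 25 […] M in duplicate wells. Signals normalised to same-plate solvent controls as percent of neutral control, and AC50 values came from Hill-equation fits of concentration-response curves.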

[18] = target: T5, PPARG (peroxisome proliferator-activated receptor gamma) (Homo sapiens, UniProt P37231); experiment: ATG_PPARg_TRANS: Factorial reporter gene assay (HepG2); format: cell-based; conditions: HepG2
T5 construct: expressed in transfected cells; host or cells: HepG2
T5 sequence (P37231 1-505): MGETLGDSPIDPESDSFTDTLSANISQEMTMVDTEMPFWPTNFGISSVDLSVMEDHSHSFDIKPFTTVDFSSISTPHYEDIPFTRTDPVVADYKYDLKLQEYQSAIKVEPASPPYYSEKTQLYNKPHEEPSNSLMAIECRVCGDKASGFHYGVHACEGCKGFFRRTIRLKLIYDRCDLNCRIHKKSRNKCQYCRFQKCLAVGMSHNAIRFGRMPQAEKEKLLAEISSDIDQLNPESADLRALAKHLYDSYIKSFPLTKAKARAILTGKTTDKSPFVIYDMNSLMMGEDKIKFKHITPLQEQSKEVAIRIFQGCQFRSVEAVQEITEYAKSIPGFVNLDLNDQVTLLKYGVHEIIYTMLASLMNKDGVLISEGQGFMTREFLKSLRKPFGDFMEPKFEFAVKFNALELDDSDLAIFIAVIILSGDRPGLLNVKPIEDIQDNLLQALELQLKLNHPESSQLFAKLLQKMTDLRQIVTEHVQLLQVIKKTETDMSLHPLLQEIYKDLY
Method in brief: as §2

| SMILES | CLZD_CYP2B6_24 [1] | CHR_Mouse_Liver_2_PreneoplasticLesion ([2]; mouse, chronic study) | CHR_Mouse_Liver_1_AnyLesion ([3]; mouse, chronic study) | ATG_PXR_TRANS [4] | ATG_ERa_TRANS [5] | ATG_PXRE_CIS [6] | CLZD_CYP3A4_24 [7] | CLZD_CYP1A2_24 [8] | CLZD_CYP1A1_24 [10] | CHR_Rat_Liver_1_AnyLesion ([11]; rat, chronic study) | CHR_Rat_Liver_2_PreneoplasticLesion ([13]; rat, chronic study) | CHR_Rat_Liver_3_NeoplasticLesion ([14]; rat, chronic study) | NVS_NR_hPXR [17] | also measured |
| --- | --- | --- | --- | --- | --- | --- | --- | --- | --- | --- | --- | --- | --- | --- |
| CCOc1cc(Oc2ccc(C(F)(F)F)cc2Cl)ccc1[N+](=O)[O-] [r233] | 5.028 | 6 | 6 | 4.699 | 5.102 | 4.432 | 5.072 | 5.409 | 5.52 | – | – | – | – | NCGC_PXR_Agonist_human [9]: 4.683 |
| CC(C)(C)[C@H](O)[C@H](Cc1ccc(Cl)cc1)n1cncn1 [r235] | 5.403 | – | 6 | – | – | 4.824 | – | – | 5.242 | 6 | 0 | 0 | – | CLZD_ABCB1_24 [12]: 5.316 |
| CC1(C)C(C=C(Cl)Cl)C1C(=O)OCc1cccc(Oc2ccccc2)c1 (stereo not drawn) [r242] | 4.991 | 6 | 6 | – | 4.523 | 4.959 | 5.668 | – | – | 6 | 0 | 0 | 4.444 | CHR_Mouse_Liver_3_NeoplasticLesion ([15]; mouse, chronic study): 6; ATG_Ahr_CIS [16]: 4.125 |
| CCCCC(CC)CN1C(=O)C2C3C=CC(C3)C2C1=O (stereo not drawn) [row 212] | 5.005 | – | – | 4.745 | 4.328 | 5.06 | 4.752 | 5.284 | 4.883 | – | – | – | 4.582 | CHR_Mouse_Liver_3_NeoplasticLesion ([15]; chronic mouse study, liver): 6; CHR_Rat_Liver_1_AnyLesion ([11]; chronic rat study, liver): 6; CHR_Mouse_Liver_2_PreneoplasticLesion ([2]; chronic mouse study, liver): 6; CHR_Mouse_Liver_1_AnyLesion ([3]; chronic mouse study, liver): 6; CHR_Rat_Liver_2_PreneoplasticLesion ([13]; chronic rat study, liver): 6; ATG_PPARg_TRANS [18]: 4.284; CHR_Rat_Liver_3_NeoplasticLesion ([14]; chronic rat study, liver): 0 |
